Data reported in article PMC5978884, “Dissection of the antimicrobial and hemolytic activity of Cap18: Generation of Cap18 derivatives with enhanced specificity” (PLoS ONE, 2018).
Converted amounts (≈) assume the structure as drawn. Like-named read-outs stand apart in the source and are kept apart here. Where no end group is shown, it is not given here.

Experiments:
Assay type in all cases: cell-based
[1] = test system: Listeria monocytogenes N22-2
Description: (§1) All strains were grown in Mueller-Hinton-II medium, except L. monocytogenes which was grown in BHI medium and L. lactis which was grown in MRS medium. Incubation took place aerobically at 37°C, except for Y. ruckeri and A. salmonicida, which were grown aerobically at RT (20 °C), and L. lactis grown aerobically at 30°C. All plates were incubated for 16–21 hours.
(§2) The minimum inhibitory concentrations (MICs) of the AMPs were measured in 96-well microtiter plates according the Clinical and Laboratory Standards Institute (CLSI, formerly National Committee for Clinical Laboratory Standards [NCCLS]). Briefly, liquid Mueller-Hinton-II medium containing increasing concentrations of AMPs is inoculated with a defined number of cells (approx. 10^5 CFUs/ml) in 96-well microtiter plates (polypropylene), whereas each plate also includes a positive growth control and a negative control (sterile control). The range of peptide concentrations analyzed was 0.125–64 μg/ml for the high purity peptides and 0.06–32 μg/ml for peptides of the variant library. After incubation, the MIC is determined by the lowest concentration showing no visible growth. All plates were incubated for 16–20 hours. The MIC of the reference antibiotics was determined by the use of Sensititre panels (Trek Diagnostic Systems Ltd, East Grinstead, UK).

[2] = test system: Enterococcus faecalis ATCC29212
Description: as §1, §2

[3] = test system: Pseudomonas aeruginosa ATCC27853
Description: as §1, §2

[4] = test system: Escherichia coli ATCC25922
Description: as §1, §2

[5] = test system: Lactococcus lactis IL1403
Description: as §1, §2

[6] = test system: Aeromonas salmonicida ATCC33658; test: microbe, parasite or virus in culture; conditions: for MIC: Aeromonas salmonicida
Description: as §1, §2

[7] = test system: Yersinia ruckeri 392/2003; test: microbe, parasite or virus in culture; conditions: for MIC: Yersinia ruckeri, 392/2003, read-out: MIC Yersinia ruckeri 392/2003
Description: as §1, §2

[8] = test system: Salmonella enterica serovar Typhimurium LT2; test: microbe, parasite or virus in culture; conditions: for MIC S. Typhimurium LT2 / MIC S. Typhimurium: LT2; for MIC: Salmonella enterica, TYPHIMURIUM, read-out: MIC Salmonella Typhimurium LT2
Description: as §1, §2

[9] = standard antibiotics, Sensititre panels, triplicates, ≤ = sensitive to lowest concentration in plate
[10] = ATCC33658, read-out: MIC Aermononas salmonicida ATCC33658

## GLRKRLRKFRNKIKEDLKKIGQKIQGLLPKLAPRTDY [Peptide 10]
[1]
  MIC L. monocytogenes N22-2: 4 to 8 µg/mL
[2]
  MIC E. faecalis ATCC29212: 32 µg/mL
[3]
  MIC P. aeruginosa ATCC27853: 16 to 32 µg/mL
[4]
  MIC E. coli ATCC25922: 4 to 8 µg/mL
[5]
  MIC L. lactis IL1403: 2 µg/mL
[6]; ATCC33658
  MIC A. salmonicida ATCC33658: 2 to 4 µg/mL
[7]
  MIC Y. ruckeri 392/2003: 4 µg/mL
[8]
  MIC S. Typhimurium LT2: 4 µg/mL

## GLRKRLRKFRNKIKEKLKKIGQKIQGPLPKLAPRTDY [Peptide 31]
[1]
  MIC L. monocytogenes N22-2: 32 µg/mL
[2]
  MIC E. faecalis ATCC29212: ≥64 µg/mL
[3]
  MIC P. aeruginosa ATCC27853: 8 µg/mL
[4]
  MIC E. coli ATCC25922: ≥64 µg/mL
[5]
  MIC L. lactis IL1403: 32 µg/mL
[6]; ATCC33658
  MIC A. salmonicida: 16 µg/mL
  MIC A. salmonicida ATCC33658: 16 µg/mL
[7]
  MIC Y. ruckeri: 16 µg/mL
  MIC Y. ruckeri 392/2003: 32 µg/mL
[8]
  MIC S. Typhimurium: 4 µg/mL
  MIC S. Typhimurium LT2: 8 µg/mL

## GLRKRPRKFRNKIKEKLKKIGQKIQGLLPKLAPRTDY [Peptide 1]
[1]
  MIC L. monocytogenes N22-2: 32 µg/mL
[2]
  MIC E. faecalis ATCC29212: 32 µg/mL
[3]
  MIC P. aeruginosa ATCC27853: ≥64 µg/mL
[4]
  MIC E. coli ATCC25922: 8 µg/mL
[5]
  MIC L. lactis: 8 µg/mL
  MIC L. lactis IL1403: ≥64 µg/mL
[6]; ATCC33658
  MIC A. salmonicida: 8 µg/mL
  MIC A. salmonicida ATCC33658: 8 to 16 µg/mL
[7]
  MIC Y. ruckeri 392/2003: 64 µg/mL
[8]
  MIC S. Typhimurium: 4 µg/mL
  MIC S. Typhimurium LT2: 8 µg/mL

## GLRKRLRKFRNKIKEKLKKEGQKIQGLLPKLAPRTDY [Peptide 20]
[1]
  MIC L. monocytogenes N22-2: 32 µg/mL
[2]
  MIC E. faecalis ATCC29212: ≥64 µg/mL
[3]
  MIC P. aeruginosa ATCC27853: 16 µg/mL
[4]
  MIC E. coli ATCC25922: ≥64 µg/mL
[5]
  MIC L. lactis IL1403: 32 µg/mL
[6]; ATCC33658
  MIC A. salmonicida: 8 µg/mL
  MIC A. salmonicida ATCC33658: 16 µg/mL
[7]
  MIC Y. ruckeri: 16 µg/mL
  MIC Y. ruckeri 392/2003: 32 µg/mL
[8]
  MIC S. Typhimurium: 4 µg/mL
  MIC S. Typhimurium LT2: 8 µg/mL

## GLRKRLRKFRNKQKEKLKKIGQKIQGLLPKLAPRTDY [Peptide 7]
[1]
  MIC L. monocytogenes N22-2: 16 µg/mL
[2]
  MIC E. faecalis ATCC29212: 32 µg/mL
[3]
  MIC P. aeruginosa ATCC27853: 8 µg/mL
[4]
  MIC E. coli ATCC25922: 16 to 32 µg/mL
[5]
  MIC L. lactis IL1403: ≥64 µg/mL
[6]; ATCC33658
  MIC A. salmonicida: 4 µg/mL
  MIC A. salmonicida ATCC33658: 8 µg/mL
[7]
  MIC Y. ruckeri 392/2003: 8 µg/mL
[8]
  MIC S. Typhimurium: 4 µg/mL
  MIC S. Typhimurium LT2: 4 to 8 µg/mL

## GLRKRLRKFRNKIKEKLKKIGQKGQGLLPKLAPRTDY [Peptide 27]
[1]
  MIC L. monocytogenes N22-2: 32 µg/mL
[2]
  MIC E. faecalis ATCC29212: ≥64 µg/mL
[3]
  MIC P. aeruginosa ATCC27853: 16 µg/mL
[4]
  MIC E. coli ATCC25922: ≥64 µg/mL
[5]
  MIC L. lactis IL1403: ≥64 µg/mL
[6]; ATCC33658
  MIC A. salmonicida: 8 µg/mL
  MIC A. salmonicida ATCC33658: 8 µg/mL
[7]
  MIC Y. ruckeri: 16 µg/mL
  MIC Y. ruckeri 392/2003: 32 µg/mL
[8]
  MIC S. Typhimurium: 4 µg/mL
  MIC S. Typhimurium LT2: 8 to 16 µg/mL

## GLRKRLRKFRNKIKEKLKKIGQKHQGLLPKLAPRTDY [Peptide I24H]
[6]; ATCC33658
  MIC A. salmonicida: 8 µg/mL
[8]
  MIC S. Typhimurium: 8 µg/mL

## GLRKRDRKFRNKIKEKLKKIGQKIQGLLPKLAPRTDY [Peptide L6D]
[5]
  MIC L. lactis: 16 µg/mL
[6]; ATCC33658
  MIC A. salmonicida: 16 µg/mL
[8]
  MIC S. Typhimurium: 8 µg/mL

## GLRKRLRKFRNKHKEKLKKIGQKIQGLLPKLAPRTDY [Peptide 5]
[1]
  MIC L. monocytogenes N22-2: 32 µg/mL
[2]
  MIC E. faecalis ATCC29212: ≥64 µg/mL
[3]
  MIC P. aeruginosa ATCC27853: 8 to 16 µg/mL
[4]
  MIC E. coli ATCC25922: 4 µg/mL
[5]
  MIC L. lactis IL1403: ≥64 µg/mL
[6]; ATCC33658
  MIC A. salmonicida: 4 µg/mL
  MIC A. salmonicida ATCC33658: 2 to 4 µg/mL
[7]
  MIC Y. ruckeri: 8 µg/mL
  MIC Y. ruckeri 392/2003: 8 to 16 µg/mL
[8]
  MIC S. Typhimurium: 8 µg/mL
  MIC S. Typhimurium LT2: 4 µg/mL

## GLRKRLRKFRNKIKEKLKKIGQKIQTLLPKLAPRTDY [Peptide 30]
[1]
  MIC L. monocytogenes N22-2: 4 µg/mL
[2]
  MIC E. faecalis ATCC29212: 8 µg/mL
[3]
  MIC P. aeruginosa ATCC27853: 8 µg/mL
[4]
  MIC E. coli ATCC25922: 4 to 8 µg/mL
[5]
  MIC L. lactis IL1403: 2 µg/mL
[6]; ATCC33658
  MIC A. salmonicida ATCC33658: 4 µg/mL
[7]
  MIC Y. ruckeri 392/2003: 2 to 4 µg/mL
[8]
  MIC S. Typhimurium LT2: 4 to 8 µg/mL

## GLRKRLRKFRNKIKEKCKKIGQKIQGLLPKLAPRTDY [Peptide L17C]
[6]; ATCC33658
  MIC A. salmonicida: 8 µg/mL
[8]
  MIC S. Typhimurium: 8 µg/mL

## GLRKRLRKFRNKIKEKLKKIGQKIQGLLPKLAPRHDY [Peptide T35H]
[5]
  MIC L. lactis: 8 µg/mL
[6]; ATCC33658
  MIC A. salmonicida: 2 µg/mL
[7]
  MIC Y. ruckeri: 2 µg/mL

## GLRKRLRKFRNKIKEKLKKIGQKIQGLLPKCAPRTDY [Peptide L31C]
[5]
  MIC L. lactis: 8 µg/mL
[6]; ATCC33658
  MIC A. salmonicida: 4 µg/mL
[7]
  MIC Y. ruckeri: 4 µg/mL

## Polymyxin E [reference compound]
[6]; [9]
  MIC Aermononas salmonicida ATCC33658: 2 µg/mL
[7]; standard antibiotics, Sensititre panels, triplicates
  MIC Yersinia ruckeri 392/2003: 1 to 2 µg/mL
[8]; [9]
  MIC Salmonella Typhimurium LT2: 2 µg/mL

## CCn1cc(C(=O)O)c(=O)c2ccc(C)nc21 [Nalidixic acid, reference compound]
[6]; [10]
  MIC: ≤ 4 µg/mL
[7]
  MIC: 32 µg/mL (≈ 138 µM)
[8]
  MIC: ≤ 4 µg/mL

## GLRKRLRKFRNKNKEKLKKIGQKIQGLLPKLAPRTDY [Peptide I13N]
[6]; ATCC33658
  MIC A. salmonicida: 8 µg/mL
[8]
  MIC S. Typhimurium: 8 µg/mL

## GLRKRLRKFRNKIKEKLKKQGQKIQGLLPKLAPRTDY [Peptide I20Q]
[6]; ATCC33658
  MIC A. salmonicida: 8 µg/mL
[7]
  MIC Y. ruckeri: 8 µg/mL
[8]
  MIC S. Typhimurium: 8 µg/mL

## GLRKRLRKFRNKIKEKLKKRGQKIQGLLPKLAPRTDY [Peptide I20R]
[6]; ATCC33658
  MIC A. salmonicida: 16 µg/mL
[7]
  MIC Y. ruckeri: 16 µg/mL
[8]
  MIC S. Typhimurium: 8 µg/mL

## GLRKRLRKFRNKIKEKLKKIIQKIQGLLPKLAPRTDY [Peptide G21I]
[6]; ATCC33658
  MIC A. salmonicida: 8 µg/mL
[7]
  MIC Y. ruckeri: 8 µg/mL
[8]
  MIC S. Typhimurium: 8 µg/mL

## GLRKRLRKFRNKIKEKHKKIGQKIQGLLPKLAPRTDY [Peptide L17H]
[6]; ATCC33658
  MIC A. salmonicida: 8 µg/mL
[8]
  MIC S. Typhimurium: 8 µg/mL

## GLRKRRRKFRNKIKEKLKKIGQKIQGLLPKLAPRTDY [Peptide L6R]
[6]; ATCC33658
  MIC A. salmonicida: 16 µg/mL
[7]
  MIC Y. ruckeri: 16 µg/mL
[8]
  MIC S. Typhimurium: 8 µg/mL

## GLRKRLRKFRNKIKEKLKKIGQKIQGLLPKLAPRTDD [Peptide Y37D]
[5]
  MIC L. lactis: 8 µg/mL
[6]; ATCC33658
  MIC A. salmonicida: 2 µg/mL
[7]
  MIC Y. ruckeri: 2 µg/mL

## CNC(C)C1CCC(N)C(OC2C(N)CC(N)C(OC3OCC(C)(O)C(NC)C3O)C2O)O1 (centres unmarked) [Gentamicin, reference compound]
[6]; [10]
  MIC: 1 µg/mL (≈ 2.09 µM)
[7]
  MIC: 1 to 2 µg/mL (≈ 2.09 to 4.19 µM)
[8]
  MIC: 0.5 to 1 µg/mL (≈ 1.05 to 2.09 µM)

## CC1(C)S[C@@H]2[C@H](NC(=O)[C@H](N)c3ccccc3)C(=O)N2[C@H]1C(=O)O [Ampicillin, reference compound]
[6]; ATCC33658, standard antibiotics, Sensititre panels, triplicates, ≤ = sensitive to lowest concentration in plate, read-out: MIC Aermononas salmonicida ATCC33658
  MIC: ≤ 1 µg/mL
[7]
  MIC: 2 µg/mL (≈ 5.72 µM)
[8]; [9]
  MIC: ≤ 1 µg/mL
